Target: T1, Flt-1 VEGF receptor tyrosine kinase (Homo sapiens, UniProt P17948)
T1 construct: 10 ng of the kinase domain of Flt-1
T1 sequence (P17948 827-1158 limits assumed): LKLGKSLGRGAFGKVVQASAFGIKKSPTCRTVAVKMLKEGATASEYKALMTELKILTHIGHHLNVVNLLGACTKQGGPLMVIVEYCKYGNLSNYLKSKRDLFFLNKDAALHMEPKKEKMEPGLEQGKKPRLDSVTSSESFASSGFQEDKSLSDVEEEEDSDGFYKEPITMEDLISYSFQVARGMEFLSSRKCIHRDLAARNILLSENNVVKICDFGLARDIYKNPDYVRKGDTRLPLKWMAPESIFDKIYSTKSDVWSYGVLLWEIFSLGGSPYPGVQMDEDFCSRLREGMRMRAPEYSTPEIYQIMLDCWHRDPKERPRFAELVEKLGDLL
Experiment: Test for activity against Flt-1 VEGF receptor tyrosine kinase activity
Type: biochemical
Conditions: kinase domain of Flt-1, poly(Glu,Tyr) 4:1, 8 μM [33P]-ATP, 15 minutes at room temperature
Experimental: Test for activity against VEGF receptor tyrosine kinase activity: The test is carried out using Flt-1 VEGF receptor tyrosine kinase. In detail, the procedure is as follows: 30 μl of kinase solution (10 ng of the kinase domain of Flt-1, Shibuya et al., Oncogene 5, 519-524 (1990)) in 20 mM Tris-HCl pH 7.6, 3 mM manganese dichloride (MnCl2), 3 mM magnesium chloride (MgCl2) and 3 μg/ml of poly(Glu,Tyr) 4:1 (Sigma, Buchs, Switzerland), 8 μM [^33P]-ATP (0.2 μCi/batch), 1% dimethyl sulfoxide and from 0 to 50 μM of the test compound are incubated together for 15 minutes at room temperature. The reaction is then terminated by addition of 10 μl of 0.25M ethylenediamine tetraacetate (EDTA) pH 7. An aliquot of 20 μl is connected to a vacuum using a multichannel dispenser (LAB SYSTEMS, USA) on a PVDF (=polyvinyl difluoride) Immobilon P membrane (Millipore, USA), which is incorporated in a Millipore Microtiter filter manifold. When the liquid has been removed completely, the membrane is incubated 4 times in succession, in each case for 10 minutes, with shaking, in a washing bath containing 0.5% phosphoric acid (H3PO4), and is then mounted in a Hewlett Packard TopCount Manifold and, after addition of 10 μl of Microscint® (β-scintillation counter fluid; Packard, USA), the radioactivity is, measured. IC50 values are determined by linear regression analysis of the percentage values for the inhibition of each compound at three concentrations (generally 0.01, 0.1 and 1 μM). The inhibition values (IC50 with half-maximum inhibition as compared with a control without inhibitor of formula I) found are especially in the range of from 10 nmol/liter to 100 μmol/liter, more especially from 20 to 2000 nmol/liter.
The test is carried out using Fit-1 VEGF receptor tyrosine kinase, as described above. The IC50 values obtained are shown below, insofar as they were calculated accurately: […]

| SMILES | IC50 [nM] |
| --- | --- |
| Cc1cccc(Nc2ncc(Cc3ccncc3)c3ccccc23)c1 [Example 5] | 344 |
| Clc1ccc(Nc2ncc(Cc3ccncc3)c3ccccc23)cc1 [Example 2] | 346 |
| FC(F)(F)c1cc(Br)cc(Nc2ncc(Cc3ccncc3)c3ccccc23)c1 [Example 3] | > 1000 |
| FC(F)(F)c1cc(Nc2ncc(Cc3ccncc3)c3ccccc23)ccc1Cl [Example 4] | > 1000 |
| Cc1cc(C)cc(Nc2ncc(Cc3ccncc3)c3ccccc23)c1 [Example 1, 1-(3,5-Dimethylanilino)-4-[(pyridin-4-yl)-methyl]-isoquinoline] | 802 |

Tested on: not given
Experiment: not given
Conditions: not given

| SMILES | melting point [°C] |
| --- | --- |
| Clc1cccc(CNc2ncc(Cc3ccncc3)c3ccccc23)c1 [Example 132, 1-(3-Chlorobenzylamino)-4-[(pyridin-4-yl)-methyl]-isoquinoline] | 141 to 142 |
| Cc1cc(C)cc(Nc2ncc(Cc3ccncc3)c3ccccc23)c1 [Example 1, 1-(3,5-Dimethylanilino)-4-[(pyridin-4-yl)-methyl]-isoquinoline] | 156 to 158 |

— US6608071B2, “Isoquinoline derivatives with angiogenesis inhibiting activity” (Novartis AG, priority 1998, dated 2003)
